Results as given in the supplement of paper PMC10307832.

Experiments:
Test in all cases: relative viability (nuclei count vs DMSO), 5 days (fraction); higher = more cells survive
[1] = tested on: NCI-H2347
Summary of the method: (§1)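 One day after seeding in 1536-well plates, lung cancer cell lines were dosed by pin tool. Dosing was either single-drug or a fixed anchor-drug dose plus five library-drug doses (not always all listed) in √10 steps. After 5 days, nuclei were stained in one fix-and-stain step and counted on 4× images, and relative viability is the nuclei count of treated wells over that of vehicle wells, given as the median of duplicate plates.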

[2] = tested on: NCI-H661
Summary of the method: as §1

[3] = tested on: NCI-H727
Summary of the method: as §1

[4] = tested on: NCI-H2126
Summary of the method: as §1

[5] = tested on: NCI-H322M
Summary of the method: as §1

[6] = tested on: PC-14
Summary of the method: as §1

[7] = tested on: EMC-BAC-2
Summary of the method: as §1

[8] = tested on: EPLC-272H
Summary of the method: as §1

[9] = tested on: NCI-H2023
Summary of the method: as §1

[10] = tested on: NCI-H1993
Summary of the method: as §1

[11] = tested on: SW 1573
Summary of the method: as §1

[12] = tested on: NCI-H2085
Summary of the method: as §1

[13] = tested on: NCI-H1563
Summary of the method: as §1

[14] = tested on: LCLC-97TM1
Summary of the method: as §1

[15] = tested on: NCI-H647
Summary of the method: as §1

[16] = tested on: NCI-H1734
Summary of the method: as §1

[17] = tested on: NCI-H1915
Summary of the method: as §1

[18] = tested on: NCI-H2009
Summary of the method: as §1

[19] = tested on: LXF-289
Summary of the method: as §1

[20] = tested on: HOP-62
Summary of the method: as §1

[21] = tested on: H3255
Summary of the method: as §1

[22] = tested on: SK-LU-1
Summary of the method: as §1

Q: How did the relative viability ([1]; first compound 0.08 µM) turn out when `COc1nc(C)cnc1NS(=O)(=O)c1cccnc1-c1ccc(-c2nnco2)cc1` [Zibotentan] + CC(C)C[C@H](NC(=O)[C@H](Cc1ccccc1)NC(=O)c1cnccn1)B(O)O [Bortezomib] (partner 0.002 µM) was run?
A: 1.08

Q: What about the relative viability ([1]; first compound 0.253 µM) of the same compound?
A: 0.871

Q: And the relative viability ([1]; first compound 0.8 µM)?
A: 1.04

Q: And the relative viability ([1]; first compound 2.53 µM)?
A: 0.734

Q: And the relative viability ([2]; first compound 0.08 µM)?
A: 1.02

Q: What about the relative viability ([2]; first compound 0.253 µM) of the same compound?
A: 0.656

Q: And the relative viability ([2]; first compound 0.8 µM)?
A: 0.89

Q: And the relative viability ([2]; first compound 2.53 µM)?
A: 0.841

Q: And the relative viability ([3]; first compound 0.08 µM)?
A: 0.745

Q: What about the relative viability ([3]; first compound 0.253 µM) of the same compound?
A: 0.768

Q: What about the relative viability ([3]; first compound 0.8 µM) of the same compound?
A: 0.966

Q: What about the relative viability ([3]; first compound 2.53 µM) of the same compound?
A: 0.805

Q: What about the relative viability ([4]; first compound 0.08 µM) of the same compound?
A: 1.19

Q: What about the relative viability ([4]; first compound 0.253 µM) of the same compound?
A: 1.15

Q: And the relative viability ([4]; first compound 0.8 µM)?
A: 1.15

Q: What about the relative viability ([4]; first compound 2.53 µM) of the same compound?
A: 1.16

Q: And the relative viability ([5]; first compound 0.08 µM)?
A: 1.05

Q: What about the relative viability ([5]; first compound 0.253 µM) of the same compound?
A: 1.22

Q: And the relative viability ([5]; first compound 0.8 µM)?
A: 1.18

Q: What about the relative viability ([5]; first compound 2.53 µM) of the same compound?
A: 1.34

Q: And the relative viability ([6]; first compound 0.08 µM)?
A: 0.872

Q: And the relative viability ([6]; first compound 0.253 µM)?
A: 0.922

Q: And the relative viability ([6]; first compound 0.8 µM)?
A: 0.897

Q: What about the relative viability ([6]; first compound 2.53 µM) of the same compound?
A: 0.861

Q: What about the relative viability ([7]; first compound 0.08 µM) of the same compound?
A: 1.18

Q: And the relative viability ([7]; first compound 0.253 µM)?
A: 1.04

Q: What about the relative viability ([7]; first compound 0.8 µM) of the same compound?
A: 1.07

Q: And the relative viability ([7]; first compound 2.53 µM)?
A: 1.09

Q: What about the relative viability ([8]; first compound 0.08 µM) of the same compound?
A: 1.04

Q: And the relative viability ([8]; first compound 0.253 µM)?
A: 0.906

Q: What about the relative viability ([8]; first compound 0.8 µM) of the same compound?
A: 0.843

Q: What about the relative viability ([8]; first compound 2.53 µM) of the same compound?
A: 0.862

Q: What about the relative viability ([9]; first compound 0.08 µM) of the same compound?
A: 1.04

Q: What about the relative viability ([9]; first compound 0.253 µM) of the same compound?
A: 0.87

Q: And the relative viability ([9]; first compound 0.8 µM)?
A: 0.909

Q: What about the relative viability ([9]; first compound 2.53 µM) of the same compound?
A: 0.966

Q: And the relative viability ([10]; first compound 0.253 µM)?
A: 1.05

Q: What about the relative viability ([10]; first compound 0.8 µM) of the same compound?
A: 0.994

Q: And the relative viability ([10]; first compound 2.53 µM)?
A: 1.8

Q: What about the relative viability ([11]; first compound 0.08 µM) of the same compound?
A: 1

Q: What about the relative viability ([11]; first compound 0.253 µM) of the same compound?
A: 0.847

Q: And the relative viability ([11]; first compound 0.8 µM)?
A: 1.05

Q: What about the relative viability ([11]; first compound 2.53 µM) of the same compound?
A: 1.28

Q: And the relative viability ([12]; first compound 0.08 µM)?
A: 1.06

Q: What about the relative viability ([12]; first compound 0.253 µM) of the same compound?
A: 0.941

Q: What about the relative viability ([12]; first compound 0.8 µM) of the same compound?
A: 1.07

Q: And the relative viability ([12]; first compound 2.53 µM)?
A: 1.14

Q: And the relative viability ([13]; first compound 0.08 µM)?
A: 0.932

Q: And the relative viability ([13]; first compound 0.253 µM)?
A: 0.648

Q: And the relative viability ([13]; first compound 0.8 µM)?
A: 0.881

Q: What about the relative viability ([13]; first compound 2.53 µM) of the same compound?
A: 0.905

Q: And the relative viability ([14]; first compound 0.08 µM)?
A: 0.631

Q: What about the relative viability ([14]; first compound 0.8 µM) of the same compound?
A: 0.657

Q: And the relative viability ([14]; first compound 2.53 µM)?
A: 0.688

Q: And the relative viability ([15]; first compound 0.08 µM)?
A: 0.859

Q: What about the relative viability ([15]; first compound 0.253 µM) of the same compound?
A: 0.818

Q: And the relative viability ([15]; first compound 0.8 µM)?
A: 0.891

Q: What about the relative viability ([15]; first compound 2.53 µM) of the same compound?
A: 1.11

Q: What about the relative viability ([16]; first compound 0.08 µM) of the same compound?
A: 1.1

Q: And the relative viability ([16]; first compound 0.253 µM)?
A: 0.894

Q: And the relative viability ([16]; first compound 0.8 µM)?
A: 0.972

Q: And the relative viability ([16]; first compound 2.53 µM)?
A: 1

Q: What about the relative viability ([17]; first compound 0.08 µM) of the same compound?
A: 1.1

Q: And the relative viability ([17]; first compound 0.253 µM)?
A: 0.986

Q: And the relative viability ([17]; first compound 0.8 µM)?
A: 1.01

Q: What about the relative viability ([17]; first compound 2.53 µM) of the same compound?
A: 0.965

Q: What about the relative viability ([18]; first compound 0.08 µM) of the same compound?
A: 1.04

Q: And the relative viability ([18]; first compound 0.253 µM)?
A: 0.973

Q: And the relative viability ([18]; first compound 0.8 µM)?
A: 1.11

Q: What about the relative viability ([18]; first compound 2.53 µM) of the same compound?
A: 1.12

Q: And the relative viability ([19]; first compound 0.08 µM)?
A: 1.05

Q: And the relative viability ([19]; first compound 0.253 µM)?
A: 0.993

Q: And the relative viability ([19]; first compound 0.8 µM)?
A: 1.05

Q: And the relative viability ([19]; first compound 2.53 µM)?
A: 0.989

Q: And the relative viability ([20]; first compound 0.08 µM)?
A: 0.732

Q: What about the relative viability ([20]; first compound 0.253 µM) of the same compound?
A: 0.625

Q: And the relative viability ([20]; first compound 0.8 µM)?
A: 1.08

Q: And the relative viability ([20]; first compound 2.53 µM)?
A: 0.724

Q: And the relative viability ([21]; first compound 0.08 µM)?
A: 0.791

Q: What about the relative viability ([21]; first compound 0.253 µM) of the same compound?
A: 0.963

Q: And the relative viability ([21]; first compound 0.8 µM)?
A: 0.996

Q: And the relative viability ([21]; first compound 2.53 µM)?
A: 0.822

Q: What about the relative viability ([22]; first compound 0.08 µM) of the same compound?
A: 1.17

Q: What about the relative viability ([22]; first compound 0.253 µM) of the same compound?
A: 0.988

Q: And the relative viability ([22]; first compound 0.8 µM)?
A: 1.08

Q: What about the relative viability ([22]; first compound 2.53 µM) of the same compound?
A: 1.11
